Experimental data from BindingDB's records for patent US20240262804 (Hansoh Bio, 2024).

molecular target: T1, Myosin-7 (Bos taurus, UniProt Q9BE39); assay: Biochemical Assay
T1 construct: gene MYH7
Experimental: In our experiments, bovine skinned cardiac myofibrils were isolated from the frozen bovine left ventricle as myosin's source in the ATPase assay. […] 75 μL of a solution containing bovine cardiac myofibrils, PK/LDH, and calcium were added to a 96 well plate for a 7 point dose-response. In some circumstances, 10 point-response was used to repeat the ATPase assays on compounds of interest. Compounds were added to the myofibrils solution and incubated for 5 minutes. The enzymatic reaction was started with the addition of 75 μL of a solution containing ATP, PEP, NADH, compounds, and calcium. The ATPase activity was measured by reading absorbance at 340 nm in a PerkinElmer Victor Nivo plate reader at 25° C. in kinetic mode for 15 minutes using clear bottom plates. The slopes of the absorbance changes as a function of time for the first 10 minutes were normalized to slopes on the control wells containing all reagents, including DMSO, but without compounds.

T1 sequence (Q9BE39 whole entry, looked up): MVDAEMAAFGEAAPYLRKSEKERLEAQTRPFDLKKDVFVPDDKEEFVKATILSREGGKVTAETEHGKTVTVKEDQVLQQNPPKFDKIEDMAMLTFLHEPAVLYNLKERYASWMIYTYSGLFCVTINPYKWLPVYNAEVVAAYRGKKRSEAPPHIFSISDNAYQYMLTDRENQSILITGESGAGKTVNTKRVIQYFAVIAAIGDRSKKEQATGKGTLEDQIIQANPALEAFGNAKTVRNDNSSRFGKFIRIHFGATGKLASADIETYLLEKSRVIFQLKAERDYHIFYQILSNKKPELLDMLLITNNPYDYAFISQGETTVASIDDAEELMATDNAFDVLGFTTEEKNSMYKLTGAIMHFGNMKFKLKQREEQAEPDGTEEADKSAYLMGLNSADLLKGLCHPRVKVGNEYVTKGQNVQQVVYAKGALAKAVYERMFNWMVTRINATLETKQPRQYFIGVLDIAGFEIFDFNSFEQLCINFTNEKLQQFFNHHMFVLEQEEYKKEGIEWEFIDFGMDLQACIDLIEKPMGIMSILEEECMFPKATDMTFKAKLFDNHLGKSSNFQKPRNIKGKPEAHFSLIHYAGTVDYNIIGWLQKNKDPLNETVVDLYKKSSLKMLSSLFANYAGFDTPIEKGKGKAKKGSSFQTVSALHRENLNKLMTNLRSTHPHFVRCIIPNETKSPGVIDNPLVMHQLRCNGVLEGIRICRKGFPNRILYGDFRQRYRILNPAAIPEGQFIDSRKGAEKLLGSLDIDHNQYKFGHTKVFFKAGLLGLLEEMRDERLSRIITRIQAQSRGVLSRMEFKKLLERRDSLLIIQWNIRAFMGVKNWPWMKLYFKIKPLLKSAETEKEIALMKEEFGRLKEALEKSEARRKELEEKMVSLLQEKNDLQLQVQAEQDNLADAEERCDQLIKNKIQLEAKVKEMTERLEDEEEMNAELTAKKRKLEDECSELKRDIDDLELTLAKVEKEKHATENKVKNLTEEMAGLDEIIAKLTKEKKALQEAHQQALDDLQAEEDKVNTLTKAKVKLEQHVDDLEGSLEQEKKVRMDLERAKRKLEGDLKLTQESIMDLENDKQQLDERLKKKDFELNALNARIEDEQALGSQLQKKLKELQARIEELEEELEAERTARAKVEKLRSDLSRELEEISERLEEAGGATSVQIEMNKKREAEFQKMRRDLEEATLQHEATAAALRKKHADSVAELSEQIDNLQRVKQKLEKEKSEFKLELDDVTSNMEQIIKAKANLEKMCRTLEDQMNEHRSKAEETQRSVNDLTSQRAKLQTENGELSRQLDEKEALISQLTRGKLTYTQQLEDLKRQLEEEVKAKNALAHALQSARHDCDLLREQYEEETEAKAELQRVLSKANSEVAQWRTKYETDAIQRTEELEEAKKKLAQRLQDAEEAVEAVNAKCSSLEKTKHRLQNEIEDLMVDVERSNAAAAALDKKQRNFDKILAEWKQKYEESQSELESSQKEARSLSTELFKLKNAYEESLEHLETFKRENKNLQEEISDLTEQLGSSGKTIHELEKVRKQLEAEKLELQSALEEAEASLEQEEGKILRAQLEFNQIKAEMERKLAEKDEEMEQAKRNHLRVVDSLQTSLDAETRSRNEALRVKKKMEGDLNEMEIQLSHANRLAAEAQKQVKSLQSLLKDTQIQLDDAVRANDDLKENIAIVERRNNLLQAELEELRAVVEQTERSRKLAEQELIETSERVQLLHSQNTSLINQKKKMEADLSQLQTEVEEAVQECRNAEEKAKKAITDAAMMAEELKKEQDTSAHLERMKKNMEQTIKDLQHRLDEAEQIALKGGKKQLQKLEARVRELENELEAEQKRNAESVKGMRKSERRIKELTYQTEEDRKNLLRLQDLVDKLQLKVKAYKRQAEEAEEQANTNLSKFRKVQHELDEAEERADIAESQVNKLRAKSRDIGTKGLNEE

SMILES | IC50
C[C@H](Nc1nc(=O)n(C2CCOCC2)c(=O)[nH]1)c1cc(Cl)ccc1Cl [US20240262804, Example 163] | 930 nM
CC(C)C(O)c1cccc([C@H](C)Nc2nc(=O)n(C3CCOCC3)c(=O)[nH]2)c1 (some centres undefined) [US20240262804, Example 9] | 1180 nM
Cc1ccn(-c2cccc([C@H](C)Nc3nc(=O)n(C4CCOCC4)c(=O)[nH]3)c2)n1 [US20240262804, Example 6] | 4010 nM
C[C@H](Nc1nc(=O)n(C2CCOCC2)c(=O)[nH]1)c1cccc(C(C)(C)O)c1 [US20240262804, Example 8] | 2460 nM
C[C@H](Nc1nc(=O)n(C2CCOCC2)c(=O)[nH]1)c1ccc(F)cc1Cl [US20240262804, Example 162] | 1210 nM

The remaining lines, values ahead:

IC50 | SMILES
800 nM | Cc1cccc([C@H](C)Nc2nc(=O)n(C3CCOCC3)c(=O)[nH]2)c1 [US20240262804, Example 4]
8050 nM | C[C@H](Nc1nc(=O)n(-c2ccccc2)c(=O)[nH]1)C1CCCCC1 [US20240262804, Example 1]
3590 nM | Cc1nn(C)cc1-c1cccc([C@H](C)Nc2nc(=O)n(C3CCOCC3)c(=O)[nH]2)c1 [US20240262804, Example 5]
2850 nM | C[C@H](Nc1nc(=O)n(CC(F)(F)F)c(=O)[nH]1)c1ccc(Cl)c(Cl)c1 [US20240262804, Example 173]
